From patent US20050124622A1, “Compounds and methods for the treatment of pain” (priority 1999, published 2005)

biological target: T1, NMDA receptor glycine site (Rattus norvegicus, UniProt P35439); assay: Test A: Inhibition of binding of [3H]-MDL105,519 to brain membranes; settings: not given
T1 construct: brain membranes bearing the receptor; tissue Analytical Biological Services Inc; host or cells: rat brain (cerebral cortex and hippocampus) membranes
Description: Test A: Inhibition of Binding of [^3H]-MDL105,519:
Binding of compounds to the NMDA receptor glycine site may be assessed by measuring the ability of test compounds to inhibit the binding of tritiated MDL105,519 to brain membranes bearing the receptor.
Briefly, fresh brain tissue including cerebral cortex and hippocampus from male Sprague Dawley rats was homogenized in 0.32 M sucrose and centrifuged at low speed to separate cellular membranes from other cellular components. The membranes were then washed 3 times using deionized water, followed by treatment with 0.04% Triton X-100. Finally, membranes were washed six times in 50 mM Tris citrate buffer, pH 7.4, and frozen at −80° C. until use.
[^3H]MDL105,519 (72 Ci/mmol) was purchased from Amersham. Cold MDL105,519 was purchased from Sigma/RBI. […] On the day of the experiment, brain membranes were thawed at room temperature and suspended in 50 mM tris acetate buffer, pH 7.4 (“TAB”). Seventy-five micro grams per milliliter protein (by using the BioRad dye) were used for competition binding. The experiments were carried out using 96-well plates. […] Non specific binding was determined by using 100 μM of unlabeled MDL105,519. […] After incubation, unbound [^3H]MDL105,519 was removed by filtration onto GF/B Unifilter plates using a Packard harvester. Filters were washed four times with ice cold TAB (total of 1.2 mL buffer). The plates were dried overnight at room temperature and bound radioactivity was measured on a Packard TopCount after the addition of 45 μL per well of the MICROSCINT O.
Human Brain Membranes: Human brain membranes were obtained from Analytical Biological Services Inc., and assays were performed as described for rat membranes.
Data analysis: Data was analyzed using a Microsoft Excel spreadsheet and GraphPad Prizm software and potency of compounds is expressed as the Ki (nM).

Row | Compound | Ki [nM]
1 | CC(C)(C)OC(=O)NN=Cc1ccc(Cn2nc(O)c3[nH]c4cc(Cl)ccc4c(=O)c3c2=O)cc1 [Ex. 8] | 124
2 | Cc1ncc(CO)c(Cn2nc(O)c3[nH]c4cc(Cl)ccc4c(=O)c3c2=O)c1O [Ex. 3, 7-Chloro-4-hydroxy-2-[3-hydroxy-5(hydroxymethyl)-2-methyl(4-pyridyl)]methyl-1,2,5,10-tetrahydropyridazino[4,5-b]quinoline-1,10-dione Methanesulfonate] | 1150
3 | O=C(NN=Cc1ccc(Cn2nc(O)c3[nH]c4cc(Cl)ccc4c(=O)c3c2=O)cc1)c1ccccc1 [Ex. 10] | 91
4 | O=c1c2ccc(Cl)cc2[nH]c2c(O)nn(Cc3ccc(-c4nnco4)cc3)c(=O)c12 [Ex. 1, 7-Chloro-4-hydroxy-2-(4-[1,3,4]oxadiazol-2-yl-benzyl)-1,2,5,10-tetrahydropyridazino[4,5-b]quinoline-1,10-dione] | 95.8
5 | O=c1c2ccc(Cl)cc2[nH]c2c(O)nn(Cc3ccc(C=NNc4ccccn4)cc3)c(=O)c12 [Ex. 9, 2-{[4-[2-Aza-2-(2-pyridylamino)vinyl]phenyl}methyl)-7-chloro-4-hydroxy-2,5-dihydropyridazino[4,5-b]quinoline-1,10-dione] | 159
6 | Cc1cc(C)c(S(=O)(=O)NN=Cc2ccc(Cn3nc(O)c4[nH]c5cc(Cl)ccc5c(=O)c4c3=O)cc2)c(C)c1 [Ex. 11, 2-{[4-(2-Aza-2-{[(2,4,6-trimethylphenyl)sulfonyl]amino}vinyl)phenyl]methyl}-7-chloro-4-hydroxy-2,5-dihydropyridazino[4,5-b]quinoline-1,10-dione] | 227
7 | O=c1c2ccc(Cl)cc2[nH]c2c(O)nn(CC3CCCO3)c(=O)c12 (racemic) [Ex. 4, 7-Chloro-4-hydroxy-2-(tetrahydro-furan-2-ylmethyl)-1,2,5,10-tetrahydropyridazino[4,5-b]quinoline-1,10-dione] | 449
8 | O=Cc1ccc(Cn2nc(O)c3[nH]c4cc(Cl)ccc4c(=O)c3c2=O)cc1 [Ex. 7, 4-[(7-Chloro-4-hydroxy-1,10-dioxo-2.5-dihydropyridazino[4,5-b]quinolin-2-yl)methyl]benzaldehyde] | 173

same assay, conditions: inhibition of 1.2 nM [3H]MDL105,519 binding to brain membranes, 30 minutes at room temperature

Row | Compound | Ki [nM]
9 | O=c1c2ccc(Cl)cc2[nH]c2c(O)nn(Cc3cccc(-c4nnn[nH]4)c3)c(=O)c12 [Ex. 2, 7-Chloro-4-hydroxy-2-[3-(1H-tetrazol-5-yl)-benzyl]-1,2,5,10-tetrahydropyridazino[4.5-b]quinoline-1,10-dione.] | 42.7
10 | COc1ccc(-c2nnc(Cn3nc(O)c4[nH]c5cc(Cl)ccc5c(=O)c4c3=O)o2)cc1 [Ex. 5, 7-Chloro-4-hydroxy-2-[5-(4-methoxy-phenyl)-[1,3,4]oxadiazol-2-ylmethyl]-1,2,5,5,10-tetrahydropyridazino[4,5-b]quinoline-1,10-dione] | 146
